Assay results taken from patent publication US7129269B2, “Compound” (Sterix Ltd., priority 1996, dated 2006).
Where “and” joins values, the source holds several entries; their conditions need not be identical. Equal entries are not always repeated.

How the values were obtained:
oestrone sulphatase [1] = biological target: T1, oestrone sulphatase (Homo sapiens, UniProt P08842); experiment: Oestrone sulphatase inhibition in placental microsomes; format: biochemical; details: compared with 19
T1 construct: from tissue; host or cells: placenta (microsomes, 100,000 g)
T1 sequence (P08842 22-583): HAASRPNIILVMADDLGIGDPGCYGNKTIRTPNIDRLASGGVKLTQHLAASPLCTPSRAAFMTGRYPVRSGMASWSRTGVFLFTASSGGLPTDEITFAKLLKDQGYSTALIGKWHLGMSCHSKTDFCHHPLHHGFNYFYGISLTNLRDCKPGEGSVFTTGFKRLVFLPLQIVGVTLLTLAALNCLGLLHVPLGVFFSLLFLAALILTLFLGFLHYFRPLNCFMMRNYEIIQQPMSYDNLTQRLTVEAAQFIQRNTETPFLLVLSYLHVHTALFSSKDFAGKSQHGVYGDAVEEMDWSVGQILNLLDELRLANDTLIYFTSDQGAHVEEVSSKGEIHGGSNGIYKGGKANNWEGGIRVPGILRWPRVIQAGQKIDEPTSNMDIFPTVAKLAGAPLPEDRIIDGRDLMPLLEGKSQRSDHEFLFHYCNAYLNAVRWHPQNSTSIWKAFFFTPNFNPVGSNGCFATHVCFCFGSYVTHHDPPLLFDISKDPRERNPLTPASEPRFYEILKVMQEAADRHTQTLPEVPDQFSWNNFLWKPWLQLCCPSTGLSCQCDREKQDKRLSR

[2] = biological target: T2, oestrone sulphatase (E1-STS) (Homo sapiens, UniProt P08842); experiment: Oestrone sulphatase (E1-STS) inhibition in intact MCF-7 breast cancer cells; format: cell-based
T2 construct: endogenous in cells; host or cells: MCF-7 breast cancer cells
T2 sequence (P08842 22-583): T1 sequence (P08842 22-583)

aromatase = biological target: T3, aromatase (Homo sapiens, UniProt P11511); experiment: Aromatase inhibition in placental microsomes, tritiated water release assay
T3 sequence (P11511 1-503): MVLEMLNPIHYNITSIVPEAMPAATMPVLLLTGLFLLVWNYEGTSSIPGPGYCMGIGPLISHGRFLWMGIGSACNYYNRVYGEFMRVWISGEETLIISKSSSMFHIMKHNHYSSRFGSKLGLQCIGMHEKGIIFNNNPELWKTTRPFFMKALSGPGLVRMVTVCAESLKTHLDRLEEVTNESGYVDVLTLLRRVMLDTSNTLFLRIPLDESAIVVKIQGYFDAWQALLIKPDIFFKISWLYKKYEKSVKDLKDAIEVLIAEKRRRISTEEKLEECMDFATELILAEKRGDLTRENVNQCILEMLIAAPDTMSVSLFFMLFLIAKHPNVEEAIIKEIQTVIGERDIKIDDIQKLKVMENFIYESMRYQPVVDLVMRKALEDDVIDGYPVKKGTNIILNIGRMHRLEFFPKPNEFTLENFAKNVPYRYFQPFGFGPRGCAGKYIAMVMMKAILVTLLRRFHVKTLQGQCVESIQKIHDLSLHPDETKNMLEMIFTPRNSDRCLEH

oestrone sulphatase [3] = biological target: T4, oestrone sulphatase (Rattus norvegicus, UniProt P15589); experiment: In vivo inhibition of oestrone sulphatase activity in rat liver; details: 24 hours after single oral dose in propylene glycol; for % Inhibition of oestrone sulphatase in vivo: 10 mg/Kg
T4 construct: from tissue; host or cells: rat liver
T4 sequence (P15589 20-577): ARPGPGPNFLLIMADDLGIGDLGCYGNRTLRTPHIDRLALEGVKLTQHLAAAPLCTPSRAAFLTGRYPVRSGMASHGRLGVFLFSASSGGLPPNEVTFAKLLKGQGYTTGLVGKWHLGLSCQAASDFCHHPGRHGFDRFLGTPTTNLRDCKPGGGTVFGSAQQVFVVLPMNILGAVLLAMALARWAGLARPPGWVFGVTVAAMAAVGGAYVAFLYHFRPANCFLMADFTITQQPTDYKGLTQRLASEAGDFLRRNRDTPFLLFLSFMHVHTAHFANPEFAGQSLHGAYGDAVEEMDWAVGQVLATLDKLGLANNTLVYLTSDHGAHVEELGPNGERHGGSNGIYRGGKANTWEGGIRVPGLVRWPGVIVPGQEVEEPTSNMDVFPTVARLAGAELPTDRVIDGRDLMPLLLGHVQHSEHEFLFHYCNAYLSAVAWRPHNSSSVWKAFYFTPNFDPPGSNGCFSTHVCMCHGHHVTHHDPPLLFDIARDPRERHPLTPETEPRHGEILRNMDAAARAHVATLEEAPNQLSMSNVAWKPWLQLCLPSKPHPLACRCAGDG
Method: FIG. 11 presents in vivo inhibition of oestrone sulphatase activity in rat liver for two isoflavones according to the present invention. […] Compounds were administered as a single 10 mg/Kg dose. Oestrone sulphatase activity was assayed in tissue samples obtained 24 h after drug administration.

Structure (SMILES) | inhibition of E1-STS activity in placental microsomes (in words) (oestrone sulphatase [1]) | inhibition of E1-STS activity in MCF-7 cells (in words) [2] | % Inhibition of sulphatase activity in MCF-7 cells ([2]; 0.1 μM) | % Inhibition of sulphatase activity in MCF-7 cells ([2]; 1 μM) | % Inhibition of sulphatase activity in MCF-7 cells ([2]; 10 μM) | % Inhibition of aromatase activity in placental microsomes at 10 μM (aromatase) | % Inhibition of oestrone sulphatase in vivo (oestrone sulphatase [3]) [%] | inhibition at 1 mg/kg (oestrone sulphatase [3]; 1 mg/Kg) [%]
NS(=O)(=O)Oc1ccc(C2COc3cc(OS(N)(=O)=O)ccc3C2)cc1 (racemic) [Compound 22, (±) Isoflavane-7,4′-O,O-bisulphamate] | less potent | less potent | >99% | >99% | >99% | 13% |  | 
NS(=O)(=O)Oc1ccc2c(=O)cc(-c3ccccc3)oc2c1 [Compound 1, Flavone-7-O-sulphamate] |  |  | 0.30 ± 0.2% | 1.8 ± 1.0% | 4.9 ± 0.3% |  |  | 
NS(=O)(=O)Oc1ccc2oc(-c3ccccc3)cc(=O)c2c1 [Compound 2, Flavone-6-O-sulphamate] |  |  |  | 99.1 ± 0.6% | 98.9 ± 1.3% |  |  | 
COc1cc2oc(-c3ccccc3)cc(=O)c2c(O)c1OS(N)(=O)=O [Compound 4, 5-Hydroxy-7-methoxy flavone-6-O-sulphamate] |  |  | 11 ± 2.7% | 51 ± 3.0% | 78 ± 1.7% |  |  | 
COc1cc(O)c2c(=O)cc(-c3ccc(OS(N)(=O)=O)cc3)oc2c1 [Compound 5, 5-Hydroxy-7-methoxy-flavone-4′-O-sulphamate] |  |  | 35 ± 4.0% | 88 ± 3.1% | 99 ± 0.6% |  |  | 
COc1ccc(-c2cc(=O)c3c(O)c(OC)c(OC)cc3o2)cc1OS(N)(=O)=O [Compound 6, 5-Hydroxy 4′,6,7-Trimethoxy flavone-3′-O-sulphamate] |  |  | * (*Inactive) | 18 ± 6.1% | 27 ± 3.5% |  |  | 
COc1ccc(-c2cc(=O)c3c(OC)c(OC)c(OC)cc3o2)cc1OS(N)(=O)=O [Compound 7, 4′,5,6,7-Tetramethoxy flavone-3′-O-sulphamate] |  |  | 29 ± 0.8% | 23 ± 1.8% | 12 ± 0.5% |  |  | 
NS(=O)(=O)Oc1ccc(-c2cc(=O)c3ccccc3o2)cc1OS(N)(=O)=O [Compound 8, Flavone-3′,4′-O,O-bisulphamate] |  |  | * (*Inactive) | 13 ± 8.0% | 29 ± 1.3% |  |  | 
NS(=O)(=O)Oc1ccc(-c2cc(=O)c3c(O)cc(OS(N)(=O)=O)cc3o2)cc1 [Compound 9, 5-Hydroxy flavone-4′,7-O,O-bisulphamate] |  |  | 8 ± 2.6% | 79 ± 0.8% | 98 ± 0.4% |  |  | 
NS(=O)(=O)Oc1cc(O)c2c(=O)c(OS(N)(=O)=O)c(-c3ccccc3)oc2c1 [Compound 10, 5-Hydroxy flavone-3,7-O,O-bisulphamate] |  |  | * (*Inactive) | 8 ± 6.4% | 12 ± 7.5% |  |  | 
COc1ccc(-c2oc3cc(OS(N)(=O)=O)cc(O)c3c(=O)c2OS(N)(=O)=O)cc1 [Compound 11, 5-Hydroxy-4′-methoxy flavone-3,7-O,O-bisulphamate] |  |  | * (*Inactive) | * (*Inactive) | * (*Inactive) |  |  | 
COc1cc(-c2oc3cc(OS(N)(=O)=O)cc(O)c3c(=O)c2OS(N)(=O)=O)cc(OC)c1OC [Compound 12, 5-Hydroxy-3′,4′,5′-Trimethoxy flavone-3,7-O,O-bisulphamate] |  |  | * (*Inactive) | * (*Inactive) | * (*Inactive) |  |  | 
COc1cc(-c2oc3cc(O)cc(O)c3c(=O)c2OS(N)(=O)=O)cc(OC)c1OC [Compound 13, 5,7-Dihydroxy-3′,4′,5′-Trimethoxy flavone-3-O-sulphamate] |  |  | * (*Inactive) | * (*Inactive) | * (*Inactive) |  |  | 
COc1cc(-c2oc3cc(OS(N)(=O)=O)ccc3c(=O)c2OS(N)(=O)=O)cc(OC)c1OC [Compound 14, 3′,4′,5′-Trimethoxy flavone-3,7-O,O-bisulphamate] |  |  | * (*Inactive) | * (*Inactive) | * (*Inactive) |  |  | 
COc1cc(-c2oc3cc(O)ccc3c(=O)c2OS(N)(=O)=O)cc(OC)c1OC [Compound 15, 7-Hydroxy 3′,4′,5′-Trimethoxy flavone-3-O-sulphamate] |  |  | * (*Inactive) | * (*Inactive) | * (*Inactive) |  |  | 
COc1ccc(-c2coc3cc(OS(N)(=O)=O)cc(O)c3c2=O)cc1 [Compound 16, 5-Hydroxy-4′-methoxyisoflavone 7-O-sulphamate] |  |  | * (*Inactive) | 11 ± 3.0% | 37 ± 1.7% | * (*Inactive) |  | 
NS(=O)(=O)Oc1ccc(-c2coc3cc(OS(N)(=O)=O)cc(O)c3c2=O)cc1 [Compound 17, 5-Hydroxy isoflavone-4′,7-O,O-bisulphamate] |  |  | 22–87% and 28 ± 1.7% | 79–99% |  | * (*Inactive) | 81.4 ± 3.2 | 
NS(=O)(=O)Oc1ccc(-c2coc3cc(O)cc(O)c3c2=O)cc1 [Compound 18, 5,7-Dihydroxy isoflavone-4′-O-sulphamate] |  |  | 23 ± 2.2% | 83 ± 2.7% | 99 ± 0.7% | * (*Inactive) | 62.0 ± 4.7 | 
NS(=O)(=O)Oc1ccc(-c2coc3cc(OS(N)(=O)=O)ccc3c2=O)cc1 [Compound 19, Isoflavone-4′,7-O,O-bisulphamate] |  |  |  |  |  | * (*Inactive) | 71.4 ± 2.9 | 
COc1ccc(C2CC(=O)c3c(O)cc(OS(N)(=O)=O)cc3O2)cc1OS(N)(=O)=O (stereo not drawn) [Compound 21, 5-Hydroxy 4′-methoxy flavanone-3′,7-O,O-bisulphamate] |  |  | 2 ± 1.3% | 8 ± 0.6% | 9 ± 1.2% |  |  | 
C[C@]12CC[C@@H]3c4ccc(OS(N)(=O)=O)cc4CC[C@H]3[C@@H]1CCC2=O [EMATE, oestrone-3-sulphamate, reference compound] |  |  |  |  |  |  |  | > 99
